Experimental data published in publication PMC11578313, “Miniaturized Modular Click Chemistry‐enabled Rapid Discovery of Unique SARS‐CoV‐2 M^pro Inhibitors With Robust Potency and Drug‐like Profile” (Advanced Science, 2024).
Several values for one entry are separate records, joined by “and”; a condition that tells them apart may be missing. Identical values can stand only once.

Test: In vivo pharmacokinetic study in male ICR mice (compound alone)
Conditions: for Plasma concentration (Calculated Concentration): mouse plasma
Protocol: The pharmacokinetics profile of the newly developed antiviral compound C5N17B was subsequently evaluated in male ICR mice that were free from specific pathogens, aiming to assess its potential for therapeutic application in vivo.
A total of six male ICR mice were randomly assigned to two groups. One group received the test drug intravenously at a dosage of 2 mg kg^−1, while the other group received oral administration at a dosage of 10 mg kg^−1. To prepare solutions of C5N17B, 2.39 mg compound was dissolved in a mixture of 0.119 mL DMSO, 0.238 mL polyoxyl 15 hydroxystearate (Solutol), and 2.027 mL normal saline. For the intravenous group, blood samples were collected from the sinus jugular into heparinized centrifugation tubes at various time points after dosing: 5, 15, 30 min, 1, 2, 4, 6, 8, and 24 h. As for the oral administration group, blood samples were collected at similar time points (0.05 mL of blood each time). The collected blood samples were then centrifuged at a speed of 4000 rpm for 10 min to separate plasma, which was subsequently stored at −20 °C until further LC‐MS analysis to determine the concentration of C5N17B. Briefly, the analysis involved adding 20 µL of plasma, sample calibration standard, quality control, and dilution quality control, and blank samples into respective wells on a 96‐well plate. Then each sample was quenched with 200 µL of internal standard (the blank sample was quenched with 200 µL of ACN: MeOH = 1:1), followed by vortex‐mixed for 5 min, and centrifuged for 0.5 min at 4000 rpm, 4 °C. Next, a 100 µL portion of supernatant was transferred to another clean 96‐well plate and diluted with 100 µL of water, vortex‐mixed for 5 min and centrifuged for 10 min at 4000 rpm, 4 °C, then the sample was injected for LC‐MS/MS analysis. All samples were quantified using an LC‐MS/MS‐AR Triple Quad 5500+ (SCIEX, USA) and the ExionLC liquid phase system. The mobile phase was 0.1% formic acid‐water/ACN with gradient elute at a flow rate of 0.8 mL mi^−1n (total time 2.20 min), and the detection wavelength was 225 nm. All blood samples were centrifuged using an Eppendorf 5424R centrifuge and quantified using an LC‐MS/MS‐AR Triple Quad 5500+ (SCIEX, USA). The pharmacokinetic parameters were calculated by WinNolin 8.2 software.

[1] = IV 2 mg/kg, individual mice 1#-3#, 2 mg/kg
[2] = IV 2 mg/kg, individual mice 1-3, 2 mg/kg
[3] = PO 10 mg/kg, individual mice 4#-6#, 10 mg/kg
[4] = PO 10 mg/kg, individual mice 4-6, 10 mg/kg

Cc1cncc(C(=O)N2C[C@H]3CC[C@@H](C2)N3[C@H](c2cccc(F)c2)c2cn(CCc3ccsc3)nn2)c1 [Compound C5N17B]
Plasma concentration (Calculated Concentration) (IV 2 mg/kg, 5 min (5 min), individual mice 1#-3#, 2 mg/kg): 185 ng/mL and 233 ng/mL
Plasma concentration (Calculated Concentration) (IV 2 mg/kg, 0.5 h (30 min), individual mice 1#-3#, 2 mg/kg): 10.2 ng/mL and 16.1 ng/mL
plasma concentration (IV 2 mg/kg, 1 h, individual mice): BQL
Plasma concentration (Calculated Concentration) (IV 2 mg/kg, 1 h, individual mice 1#-3#, 2 mg/kg): BQL (3×) and No Peak
plasma concentration (IV 2 mg/kg, 2 h, individual mice): BQL
Plasma concentration (Calculated Concentration) (IV 2 mg/kg, 2 h, individual mice 1#-3#, 2 mg/kg): BQL (3×) and No Peak
plasma concentration (IV 2 mg/kg, 4 h, individual mice): BQL
Plasma concentration (Calculated Concentration) (IV 2 mg/kg, 4 h, individual mice 1#-3#, 2 mg/kg): BQL (3×) and No Peak
plasma concentration (IV 2 mg/kg, 6 h, individual mice): BQL
Plasma concentration (Calculated Concentration) (IV 2 mg/kg, 6 h, individual mice 1#-3#, 2 mg/kg): BQL (3×) and No Peak
plasma concentration (IV 2 mg/kg, 8 h, individual mice): BQL
Plasma concentration (Calculated Concentration) (IV 2 mg/kg, 8 h, individual mice 1#-3#, 2 mg/kg): BQL (3×) and No Peak
plasma concentration (IV 2 mg/kg, 24 h, individual mice): BQL
Plasma concentration (Calculated Concentration) (IV 2 mg/kg, 24 h, individual mice 1#-3#, 2 mg/kg): BQL (3×) and No Peak
AUC0-∞ [1]: 51.4 ng·h/mL and 65.2 ng·h/mL
AUC(0-t) [1]: 49.9 ng·h/mL and 62.6 ng·h/mL
C0 [1]: 342 ng/mL and 528 ng/mL
Cl [1]: 648.77 mL/min/kg and 511.58 mL/min/kg
Cmax [1]: 185 ng/mL and 233 ng/mL
MRT0-t [1]: 6.48 min and 5.56 min
MRT0-∞ [1]: 7.38 min and 6.9 min
T1/2 [1]: 6 min and 6.66 min
Vz [1]: 5.616 L/kg and 4.924 L/kg
Tlast (IV 2 mg/kg, individual mice 1-3): 0.5 h
AUCINF_obs [2]: 51.379 ng·h/mL and 65.1568 ng·h/mL
AUCINF_pred [2]: 51.3513 ng·h/mL and 64.7977 ng·h/mL
AUC_%Back_Ext_obs [2]: 49.436% and 42.7448% and 48.6559%
AUC_%Back_Ext_pred [2]: 49.6744% and 42.7678% and 48.9255%
AUC_%Extrap_obs [2]: 3.513% and 2.864% and 3.964%
AUC_%Extrap_pred [2]: 3.048% and 2.812% and 3.432%
AUCall [2]: 49.9075 ng·h/mL and 62.5739 ng·h/mL
AUClast [2]: 49.9075 ng·h/mL and 62.5739 ng·h/mL
AUMCINF_obs [2]: 8.9367 h*h*ng/mL and 6.325 h*h*ng/mL and 7.498 h*h*ng/mL
AUMCINF_pred [2]: 8.682 h*h*ng/mL and 6.307 h*h*ng/mL and 7.2606 h*h*ng/mL
AUMC_%Extrap_obs [2]: 20.8781% and 14.9894% and 22.7511%
AUMC_%Extrap_pred [2]: 18.5552% and 14.7494% and 20.228%
AUMClast [2]: 7.071 h*h*ng/mL and 5.377 h*h*ng/mL and 5.792 h*h*ng/mL
C0 [2]: 342.295 ng/mL and 528.167 ng/mL
Cl_obs [2]: 648.773 mL/min/kg and 511.587 mL/min/kg
Cl_pred [2]: 412.98 mL/min/kg and 649.123 mL/min/kg and 514.422 mL/min/kg
Clast [2]: 10.2 ng/mL and 16.1 ng/mL
Clast_pred [2]: 15.8864 ng/mL and 10.0084 ng/mL and 13.8618 ng/mL
Cmax [2]: 185 ng/mL and 233 ng/mL
Cmax_D [2]: 146 kg·ng/mL/mg and 92.5 kg·ng/mL/mg and 116.5 kg·ng/mL/mg
HL_Lambda_z [2]: 0.1073 h and 0.09999 h and 0.1112 h
Lambda_z [2]: 6.932 h⁻¹ and 6.233 h⁻¹
MRTINF_obs [2]: 7.386 min and 6.906 min
MRTINF_pred [2]: 7.368 min and 6.72 min
MRTlast [2]: 6.462 min and 5.554 min
Vss_obs [2]: 2.71724 L/kg and 4.7917 L/kg and 3.53216 L/kg
Vss_pred [2]: 2.66526 L/kg and 4.78335 L/kg and 3.45846 L/kg
Vz_obs [2]: 3.81856 L/kg and 5.61561 L/kg and 4.92437 L/kg
Vz_pred [2]: 3.83697 L/kg and 5.61863 L/kg and 4.95166 L/kg
C0, Mean (IV 2 mg/kg, mean of mice 1#-3#): 514 ng/mL
Plasma concentration (Calculated Concentration) (PO 10 mg/kg (10MPK), 5 min (5 min), individual mice 4#-6#): 23.7 ng/mL and 30.0 ng/mL and 68.2 ng/mL and 30 ng/mL
Plasma concentration (Calculated Concentration) (PO 10 mg/kg (10MPK), 15 min, individual mice 4-6): 15.3 ng/mL and 19.3 ng/mL
Plasma concentration (Calculated Concentration) (PO 10 mg/kg (10MPK), 30 min, individual mice 4-6): 8.4 ng/mL and 4.44 ng/mL and 12 ng/mL
Plasma concentration (Calculated Concentration) (PO 10 mg/kg (10MPK), 1 hr, individual mice 4-6): 6.32 ng/mL and 10.4 ng/mL and 4.89 ng/mL
Plasma concentration (Calculated Concentration), re-analysis (PO 10 mg/kg (10MPK), 1 hr, samples marked "re", individual mice): 5.19 ng/mL
Plasma concentration (Calculated Concentration) (PO 10 mg/kg (10MPK), 2 hr, individual mice 4-6): 6.1 ng/mL and 8.71 ng/mL and 16.7 ng/mL
Plasma concentration (Calculated Concentration) (PO 10 mg/kg (10MPK), 4 hr, individual mice 4-6): 4.35 ng/mL and 7.74 ng/mL
Plasma concentration (Calculated Concentration) (PO 10 mg/kg (10MPK), 6 hr, individual mice 4-6): No Peak
Plasma concentration (Calculated Concentration) (PO 10 mg/kg (10MPK), 8 hr, individual mice 4-6): No Peak
Plasma concentration (Calculated Concentration) (PO 10 mg/kg (10MPK), 24 hr, individual mice 4-6): No Peak
T1/2 (PO 10 mg/kg (10MPK), individual mice 4#-6#): 208 min and 142 min and 290 min
plasma concentration (PO 10 mg/kg, 0.5 h, individual mice 4#-6#, 10 mg/kg): 8.4 ng/mL and 12 ng/mL
plasma concentration (PO 10 mg/kg, 2 h, individual mice 4#-6#, 10 mg/kg): 6.1 ng/mL
plasma concentration (PO 10 mg/kg, 6 h, individual mice 4#-6#, 10 mg/kg): BQL
plasma concentration (PO 10 mg/kg, 8 h, individual mice 4#-6#): BQL
plasma concentration (PO 10 mg/kg, 24 h, individual mice 4#-6#): BQL
AUC0-∞ [3]: 54.0 ng·h/mL and 102 ng·h/mL
AUC(0-t) [3]: 45.5 ng·h/mL and 47.9 ng·h/mL
Cmax [3]: 30.0 ng/mL and 68.2 ng/mL and 23.7 ng/mL
F [3]: 14.30% and 15.08%
MRT0-t [3]: 114 min and 110 min
MRT0-∞ [3]: 314 min and 185 min and 401 min
Tlag (PO 10 mg/kg, individual mice 4-6): 0 h
Cmax (PO 10 mg/kg, individual mice 4-6, full-precision output, 10 mg/kg): 30 ng/mL and 68.2 ng/mL and 23.7 ng/mL
AUCINF_obs [4]: 54.0464 ng·h/mL and 102.004 ng·h/mL
AUCINF_pred [4]: 53.9915 ng·h/mL and 94.7713 ng·h/mL
AUC_%Extrap_obs [4]: 48.9815% and 15.8821% and 53.0006%
AUC_%Extrap_pred [4]: 44.7444% and 15.7964% and 49.4138%
AUCall [4]: 45.4628 ng·h/mL and 47.9412 ng·h/mL
AUClast [4]: 45.4628 ng·h/mL and 47.9412 ng·h/mL
AUMCINF_obs [4]: 311.492 h*h*ng/mL and 166.93 h*h*ng/mL and 682.098 h*h*ng/mL
AUMCINF_pred [4]: 270.44 h*h*ng/mL and 166.412 h*h*ng/mL and 602.65 h*h*ng/mL
AUMC_%Extrap_obs [4]: 84.1842% and 48.3677% and 87.065%
AUMC_%Extrap_pred [4]: 81.7834% and 48.2072% and 85.3597%
AUMClast [4]: 49.2649 h*h*ng/mL and 86.1896 h*h*ng/mL and 88.2296 h*h*ng/mL
Cl_F_obs [4]: 3083.77 mL/min/kg and 1633.93 mL/min/kg
Cl_F_pred [4]: 3030.33 mL/min/kg and 3086.92 mL/min/kg and 1758.62 mL/min/kg
Clast [4]: 5.85 ng/mL and 2.52 ng/mL and 7.74 ng/mL
Clast_pred [4]: 4.934 ng/mL and 2.504 ng/mL and 6.705 ng/mL
Cmax_D [4]: 3 kg·ng/mL/mg and 6.82 kg·ng/mL/mg and 2.37 kg·ng/mL/mg
HL_Lambda_z [4]: 3.457 h and 2.361 h and 4.842 h
Lambda_z [4]: 0.2005 h⁻¹ and 0.2936 h⁻¹ and 0.1432 h⁻¹
MRTINF_obs [4]: 313.7 min and 185.3 min and 401.2 min
